This assay has as its target full-length human RORγt (Homo sapiens (Human), UniProt P51449). In words: RORγt (full-length human) reporter assay, conditions A or B, HEK293T cells. Type of assay: cell-based. The settings on record: for inhibition at 2 µM: 2 μM compound concentration; for inhibition at 1 µM: 1 μM compound concentration (footnote ***); for inhibition at 0.67 µM: 0.67 μM compound concentration (footnote ****). Here is the method:
RORγt (Full-Length Human) Reporter Assay:
(§1) HEK293T cells were plated at 35,000 per well in 96-well plate in medium of DMEM with 10% FBS. […] After overnight (16 to 20 hours) incubation, media were removed and cells were lysed with 50 L Glo Lysis Buffer (Promega) for 10-15 minutes followed by 10 minute incubation with 50 μL Dual Glo reagent (Promega) at room temperature. Firefly luciferase luminescence was measured using a BMG Pherastar plate reader. To each well, 50 μL Stop and Glo reagent was added and incubated for 10 minutes at room temperature. Renilla luminescence was measured using a BMG Pherastar plate reader. To calculate the effect of compounds on RORγt activity, firefly values were normalized against values of DMSO only and values of reference compound at saturating concentration, then further normalized against Renilla signals. IC50s were generated by plotting final Renilla normalized data against compound concentration and percent inhibition was calculated against DMSO control.
as §1, with “at 8750 cells” for “at 35,000”, “in 384-well” for “in 96-well”, “with 20” for “with 50”, “well, 20” for “well, 50”
A general note: Reporter assays use an easily measured gene product as a stand-in for the process of interest.

[1] abbreviates: HEK-293T, 3 μM compound concentration (footnote *), read-out: RORγt (FL) Reporter Assay A or B, % inhibition.
[2] abbreviates: HEK-293T, read-out: RORγt (FL) Reporter Assay A or B, % inhibition.

Where a name gives a salt, the structure may show the parent alone. Read-outs that look alike come from different tables or passages of the source.

Chain of full-length human RORγt (P51449 other isoform, or with tags, fused parts or gaps): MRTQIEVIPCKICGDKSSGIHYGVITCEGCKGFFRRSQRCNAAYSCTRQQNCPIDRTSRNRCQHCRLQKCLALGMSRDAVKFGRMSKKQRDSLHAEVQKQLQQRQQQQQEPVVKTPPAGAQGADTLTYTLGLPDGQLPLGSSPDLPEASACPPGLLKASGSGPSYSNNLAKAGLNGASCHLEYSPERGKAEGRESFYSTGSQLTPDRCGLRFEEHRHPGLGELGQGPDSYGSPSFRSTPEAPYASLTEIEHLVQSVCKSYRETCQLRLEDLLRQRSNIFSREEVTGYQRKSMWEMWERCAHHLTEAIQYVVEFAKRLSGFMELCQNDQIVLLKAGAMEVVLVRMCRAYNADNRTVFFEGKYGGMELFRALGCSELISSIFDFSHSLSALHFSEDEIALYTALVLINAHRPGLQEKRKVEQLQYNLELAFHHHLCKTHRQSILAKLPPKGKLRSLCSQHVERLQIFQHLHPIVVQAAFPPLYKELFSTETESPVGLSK

Usually inhibition stands for the drop in the measured response relative to a control, in per cent. As for `CCn1nc(C(=O)NC[C@]2(O)CC[C@@H](S(C)(=O)=O)CC2)c(Cl)c1-c1ccc(C(C)(O)CCC(F)(F)F)cc1OC(F)F` (stereo partly drawn) [Example 101, 4-Chloro-5-(2-(difluoromethoxy)-4-(5,5,5-trifluoro-2-hydroxypentan-2-yl)phenyl)-1-ethyl-N-(((1s,4s)-1-hydroxy-4-(methylsulfonyl)cyclohexyl)methyl)-1H-pyrazole-3-carboxamide], under setting [1], the inhibition at 3 µM was 115%.
Take `CCn1nc(C(=O)NC[C@]2(O)CC[C@@H](S(C)(=O)=O)CC2)c(Cl)c1-c1ccc(C(O)C2(C(F)(F)F)CC2)cc1OC(F)F` (stereo partly drawn) [Example 109, 4-Chloro-5-(2-(difluoromethoxy)-4-(hydroxy(1-(trifluoromethyl)cyclopropyl)methyl)phenyl)-1-ethyl-N-(((1s,4s)-1-hydroxy-4-(methylsulfonyl)cyclohexyl)methyl)-1H-pyrazole-3-carboxamide]: the inhibition at 3 µM under setting [2] came to 88%.
In the case of `CCn1nc(C(=O)NC[C@]2(O)CC[C@@H](S(C)(=O)=O)CC2)c(Cl)c1-c1ccc([C@H](O)C(C)(C)C(F)(F)F)cc1OC(F)F` (single isomer, unassigned) [Example 107, 4-Chloro-5-(2-(difluoromethoxy)-4-((S*)-3,3,3-trifluoro-1-hydroxy-2,2-dimethylpropyl)phenyl)-1-ethyl-N-(((1s,4R)-1-hydroxy-4-(methylsulfonyl)cyclohexyl)methyl)-1H-pyrazole-3-carboxamide], the inhibition at 3 µM under setting [2] was 104%.
As to `CCn1nc(C(=O)NC[C@]2(O)CC[C@@H](S(C)(=O)=O)CC2)c(Cl)c1-c1ccc([C@@H](O)C(C)(C)C(F)(F)F)cc1OC(F)F` (single isomer, unassigned) [Example 108, 4-Chloro-5-(2-(difluoromethoxy)-4-((R*)-3,3,3-trifluoro-1-hydroxy-2,2-dimethylpropyl)phenyl)-1-ethyl-N-(((1s,4S)-1-hydroxy-4-(methylsulfonyl)cyclohexyl)methyl)-1H-pyrazole-3-carboxamide], the inhibition at 3 µM under setting [1] was 92%.
With `CCn1nc(C(=O)NC[C@H]2CC[C@H](S(C)(=O)=O)CC2)c(Cl)c1-c1ccc(OCC2CC2(F)F)cc1OC` (single isomer, unassigned) [Example 211, 4-Chloro-5-(4-(((R*)-2,2-difluorocyclopropyl)methoxy)-2-methoxyphenyl)-1-ethyl-N-(((1r,4R)-4-(methylsulfonyl)cyclohexyl)methyl)-1H-pyrazole-3-carboxamide], the inhibition at 2 µM under setting [2] stood at 66%.
`CCn1nc(C(=O)NC[C@]2(O)CC[C@@H](S(C)(=O)=O)CC2)c(Cl)c1-c1ccc(C(O)C(C)(C)C(F)(F)F)cc1OC(F)F` (stereo partly drawn) [Example 106, 4-Chloro-5-(2-(difluoromethoxy)-4-(3,3,3-trifluoro-1-hydroxy-2,2-dimethylpropyl)phenyl)-1-ethyl-N-(((1s,4s)-1-hydroxy-4-(methylsulfonyl)cyclohexyl)methyl)-1H-pyrazole-3-carboxamide]: under setting [2], the inhibition at 1 µM was 115%.
As for `CCn1nc(C(=O)NC[C@]2(O)CC[C@@H](S(C)(=O)=O)CC2)c(Cl)c1-c1ccc(C[C@@H](C)C(F)(F)F)cc1OC` [Example 36, 4-Chloro-1-ethyl-N-(((1s,4S)-1-hydroxy-4-(methylsulfonyl)cyclohexyl)methyl)-5-(2-methoxy-4-((R)-3,3,3-trifluoro-2-methylpropyl)phenyl)-1H-pyrazole-3-carboxamide], the inhibition at 2 µM under setting [2] came out at 101%.
In the case of `CCn1nc(C(=O)NC[C@]2(O)CC[C@@H](S(C)(=O)=O)CC2)c(Cl)c1-c1ccc([C@H](O)C2(C(F)(F)F)CC2)cc1OC(F)F` (single isomer, unassigned) [Example 110, 4-Chloro-5-(2-(difluoromethoxy)-4-((S*)-hydroxy(1-(trifluoromethyl)cyclopropyl)methyl)phenyl)-1-ethyl-N-(((1s,4R)-1-hydroxy-4-(methylsulfonyl)cyclohexyl)methyl)-1H-pyrazole-3-carboxamide], under setting [2], the inhibition at 1 µM was 75%.
`CCn1nc(C(=O)NC[C@H]2CC[C@H](S(C)(=O)=O)CC2)c(Cl)c1-c1ccc(OC[C@@H]2CC2(F)F)cc1OC` (single isomer, unassigned) [Example 210, 4-Chloro-5-(4-(((S*)-2,2-difluorocyclopropyl)methoxy)-2-methoxyphenyl)-1-ethyl-N-(((1r,4R)-4-(methylsulfonyl)cyclohexyl)methyl)-1H-pyrazole-3-carboxamide]: under setting [2], the inhibition at 2 µM came out at 77%.
Turning to `[2H]C([2H])([2H])Oc1cc(CC(C)(C)C(F)(F)F)ccc1-c1c(Cl)c(C(=O)NC[C@H]2CC[C@H](S(C)(=O)=O)CC2)nn1CC` [Example 193, 4-Chloro-1-ethyl-5-(2-(methoxy-d3)-4-(3,3,3-trifluoro-2,2-dimethylpropyl)phenyl)-N-(((1r,4r)-4-(methylsulfonyl)cyclohexyl)methyl)-1H-pyrazole-3-carboxamide], under setting [2], the inhibition at 0.67 µM came out at 93%.
As for `CCn1nc(C(=O)NC[C@H]2CC[C@H](S(C)(=O)=O)CC2)c(Cl)c1-c1ccc(OCC2CC2(F)F)cc1OC` (stereo partly drawn) [Example 209, 4-Chloro-5-(4-((2,2-difluorocyclopropyl)methoxy)-2-methoxyphenyl)-1-ethyl-N-(((1r,4r)-4-(methylsulfonyl)cyclohexyl)methyl)-1H-pyrazole-3-carboxamide], the inhibition at 2 µM under setting [2] was 82%.
By IC50 is commonly meant the concentration that gives 50% inhibition. As for `CCOC(=O)[C@]1(CNC(=O)c2nn(CC)c(-c3ccc(CC(C)(C)C(F)(F)F)cc3OC(F)F)c2Cl)CC[C@H](S(C)(=O)=O)CC1` [Example 118, Ethyl (1s*,4s*)-1-((4-chloro-5-(2-(difluoromethoxy)-4-(3,3,3-trifluoro-2,2-dimethylpropyl)phenyl)-1-ethyl-1H-pyrazole-3-carboxamido)methyl)-4-(methylsulfonyl)cyclohexane-1-carboxylate], the inhibition at 2 µM under setting [2] was 103%. Also, the IC50 (RORγt (FL) Reporter Assay A or B, IC50, HEK293T cells) came to 2.4 nM.
As to `CCn1nc(C(=O)NC[C@]2(O)CC[C@@H](S(C)(=O)=O)CC2)c(C)c1-c1ccc(C[C@@H](C)C(F)(F)F)cc1OC(F)F` [Example 142, 5-(2-(Difluoromethoxy)-4-((R)-3,3,3-trifluoro-2-methylpropyl)phenyl)-1-ethyl-N-(((1s,4S)-1-hydroxy-4-(methylsulfonyl)cyclohexyl)methyl)-4-methyl-1H-pyrazole-3-carboxamide], where the note is “HEK-293T, 0.33 μM compound concentration (footnote *****), read-out: RORγt (FL) Reporter Assay A or B, % inhibition”, the inhibition at […] was 87%.
Regarding `CCn1nc(C(=O)NC[C@]2(O)CC[C@@H](S(C)(=O)=O)CC2)c(Cl)c1-c1ccc(CC(C)(C)C(F)(F)F)cc1OC` [Example 45, 4-Chloro-1-ethyl-N-(((1s,4s)-1-hydroxy-4-(methylsulfonyl)cyclohexyl)methyl)-5-(2-methoxy-4-(3,3,3-trifluoro-2,2-dimethylpropyl)phenyl)-1H-pyrazole-3-carboxamide], under setting [2], the inhibition at 2 µM was determined as 88%.
On to `CCn1nc(C(=O)NC[C@]2(N)CC[C@H](S(C)(=O)=O)CC2)c(Cl)c1-c1ccc(CC(C)(C)C(F)(F)F)cc1OC(F)F` [Example 20, N-(((1r*,4r*)-1-Amino-4-(methylsulfonyl)cyclohexyl)methyl)-4-chloro-5-(2-(difluoromethoxy)-4-(3,3,3-trifluoro-2,2-dimethylpropyl)phenyl)-1-ethyl-1H-pyrazole-3-carboxamide 2,2,2-trifluoroacetic Acid Salt], for which, under setting [1], the inhibition at 3 µM turned out to be 15%.
Turning to `CCn1nc(C(=O)NC[C@]2(O)CC[C@@H](S(C)(=O)=O)CC2)c(Cl)c1-c1ccc(C[C@H](C)C(F)(F)F)cc1OC` (single isomer, unassigned) [Example 37, 4-Chloro-1-ethyl-N-(((1s,4R)-1-hydroxy-4-(methylsulfonyl)cyclohexyl)methyl)-5-(2-methoxy-4-((S*)-3,3,3-trifluoro-2-methylpropyl)phenyl)-1H-pyrazole-3-carboxamide], under setting [2], the inhibition at 0.67 µM stood at 97%.
With `CCn1nc(C(=O)NC[C@]2(O)CC[C@@H](S(C)(=O)=O)CC2)c(Cl)c1-c1ccc([C@](C)(O)CCC(F)(F)F)cc1OC(F)F` (relative stereo) [Example 103, 4-Chloro-5-(2-(difluoromethoxy)-4-((R*)-5-trifluoro-2-hydroxypentan-2-yl)phenyl)-1-ethyl-N-(((1s,4S)-1-hydroxy-4-(methylsulfonyl)cyclohexyl)methyl)-1H-pyrazole-3-carboxamide], the inhibition at 3 µM under setting [1] was determined as 107%.

Values taken from patent US10975037B2 (priority 2018, dated 2021).
